This passage reports logP and logD results from the SangsterLogP compilation.

Each structure is given as a SMILES string.

The logP is the decadic logarithm of the partition coefficient of the neutral form, usually between octanol and water. Low values mean lower lipophilicity, high ones higher lipophilicity.

Data set [1] in a line: method code SF-HPLC, from DOI: 10.1002/jat.2550130210, PMID: 8486911. To be noted: pH 13.0.
Data set [2] is described as follows: method code SF-RC, from DOI: 10.1021/jm901332c, PMID: 19921956. The note with it: pH 7.4.
Test in data set [3]: not given
This is another data set of the same source.

Data set [4] is described as follows: method code SF-AS, from DOI: 10.1016/j.ejmech.2003.11.003, PMID: 14987836.
Test in data set [5]: not given
This is another data set of the same source.

Test in data set [6]: not given
This is another data set of the same source.

Data set [7] in a line: method code SF-AS, from DOI: 10.1021/jm00304a030, PMID: 5793164. To be noted: pH 7.4.
Test in data set [8]: not given
This is another data set of the same source.

Test in data set [9]: not given
The source holds these as a separate data set.

Data set [10] in a line: method code SF, from DOI: 10.1016/0378-5173(87)90234-1.
Data set [11] can be described thus: method code SF-AS, from DOI: 10.1039/ft9938903773.
Test in data set [12]: not given
This is another data set of the same source.

A short description of data set [13]: method code SF, from Korenman, Y. (1975). Extraction of hydroxybenzoic acids and some of their derivatives from aqueous solution. Zh. Prikl. Khim., 48(6)1472-1474. The note with it: pH 2.0.
Test in data set [14]: not given
The source holds these as a separate data set.

Test in data set [15]: not given
This is another data set of the same source.

Test in data set [16]: not given
This is another data set of the same source.

Test in data set [17]: not given
This is another data set of the same source.

Test in data set [18]: not given
This is another data set of the same source.

Data set [19] in a line: method code SF-MS, from DOI: 10.1016/j.fluid.2014.01.017. The note with it: pH 7.6.
Data set [20] is described as follows: method code SF-AS, from DOI: 10.1021/jm00069a002, PMID: 8355246. The note with it: pH 7.4.
Data set [21] can be described thus: method code SF-GLC, from DOI: 10.1021/j100260a019.
Test in data set [22]: not given
The source holds these as a separate data set.

For data set [23] the following is noted: pH 5.6.
Data set [24] can be described thus: method code SF, from DOI: 10.1002/em.2850190108, PMID: 1732104.
A short description of data set [25]: method code SF-RC, from DOI: 10.1002/ps.2780130506.
The nature of data set [26]: method code SF-RC, from DOI: 10.1016/0014-2999(79)90231-0, PMID: 527663.
Data set [27] is described as follows: method code SF-AS, from DOI: 10.1111/j.2042-7158.1989.tb06384.x, PMID: 2576447. The note with it: pH 7.4.
Data set [28] is described as follows: method code SF-GLC,AS, from DOI: 10.2134/jeq1981.00472425001000030028x.
Data set [29] in a line: method code SF-AS, from DOI: 10.1007/bf02922495.
A short description of data set [30]: method code SF-AS, from DOI: 10.1016/0006-2952(65)90227-3, PMID: 14322976. To be noted: pH 6.8.
Data set [31] can be described thus: method code SF-C, from DOI: 10.1021/ja00901a033.
A short description of data set [32]: method code SF-GLC, from DOI: 10.1016/s0003-2670(00)84505-5.
Test in data set [33]: not given
This is another data set of the same source.

A short description of data set [34]: method code SF-AS, from DOI: 10.1007/s001289900721, PMID: 9657823.
Test in data set [35]: not given
This is another data set of the same source.

Data set [36] in a line: method code SF-RC, from PMID: 3794812.
Data set [37] can be described thus: method code SF-GLC, from DOI: 10.1007/bf00343116, PMID: 4026577.

On to `CCC(CC)C(=O)O`, for which the logP was 1.68. Turning to `C=CCNCC=C`, in data set [1], the logD came to 1.08. In turn, `Cn1cnc2c(Cl)ncnc21` yielded a logD in data set [2] of 0.38.

In turn, `c1ccc(-c2ccccc2)cc1` came in with a lipophilicity (logP) in data set [3] of 4.05. Molecule `COC(=O)[C@@H]1CCCN1S(=O)(=O)N(CCCl)N=O` had a logP in data set [4] of -0.19. Molecule `COc1ccc(N)cc1` gave a logP in data set [5] of 0.98. In data set [6], `Cn1cnc2c1c(=O)[nH]c(=O)n2C` yielded a logP of -0.82.

For `O=C1Cc2ccccc2N1`, in [7], the logD came out at 1.15. With `O=C(O)c1ccccc1Br`, in data set [8], the logP is 2.19.

In the case of `CCCCCC(CCC)C(=O)O` (stereo unspecified), the logP is 3.2.

`COc1cc(Cl)c(Cl)c(Cl)c1` had a lipophilicity (logP) in data set [9] of 4.1. In the case of `O=C(OC1CCCCC1)n1cc(F)c(=O)[nH]c1=O`, the logD in [10] (pH 4.0) turned out to be 1.42.

Consider `O=C1C=CC(=O)C=C1`, for which, in [11], the logP turned out to be 0.3. Regarding `Cc1cccc(C)c1`, in [12], the logP was determined as 3.37. In [13], `O=C(O)c1ccc(O)c(O)c1O` returned a logD of 1.05. `[O-][n+]1ccc(-c2ccccc2)cc1` gave a logP in data set [14] of 0.93. `CC(C)CNCC(C)C` came in with a logD in data set [1] of 2.67. As to `O=C(O)c1cccc(O)c1`, in data set [8], the log partition coefficient (logP) stood at 1.39. The molecule `Nc1ccccc1N` came in with a logP in data set [15] of 0.15. `CCOc1cc(Cl)c(Cl)c(Cl)c1` yielded a logP in [9] of 4.61. In [16], `Cc1cccc(C(=O)O)n1` displayed a logP of -1.22. `NS(=O)(=O)c1nnc(-c2ccccc2Cl)s1`: the logP in [17] came out at 1.43.

Consider `CN(C)c1cc[n+]([O-])cc1`, for which the logP in data set [14] is -0.9. In data set [18], `Cc1cccc([N+](=O)[O-])c1` yielded a lipophilicity (logP) of 2.4. `CCCCCCCC=O` yielded a logD in data set [19] of 2.53.

In data set [20], `CCCCNC(=O)CCn1ccc(=O)c(O)c1C` gave a logD of -0.1. Consider `CC1CCC(C)O1` (stereo unspecified), for which, in [21], the logP was determined as 1.22.

Turning to `Nc1cc(Cl)c(Cl)cc1Cl`, the logP in [22] was 3.31. For `CCC(=O)n1c(=O)[nH]cc(F)c1=O`, in data set [10] (pH 7.4), the logD is -0.21. The molecule `NS(=O)(=O)c1ccc(O)cc1` showed a logD in data set [23] of 0.06.

`CC(=O)c1ccccc1[N+](=O)[O-]`: in data set [24], the logP stood at 1.53.

Turning to `Cn1cnc2c(Br)ncnc21`, the logD in data set [2] worked out at 0.52. The molecule `CSc1cccc(NC(N)=O)c1` yielded a logP in data set [25] of 1.57. Molecule `O=C(O)[C@H]1O[C@H](O)[C@H](O)[C@@H](O)[C@@H]1O` had a logD in [26] (pH 1.0) of -2.57.

As to `CCCn1c(=O)n(C)c(=O)c2nc[nH]c21`, in [27], the logD worked out at 1.02. On to `O=C(O)c1cc(Br)ccc1O`, for which the logD in [13] came out at 2.87. Turning to `CCC(c1ccccc1)c1c(O)c2ccccc2oc1=O` (stereo unspecified), the logP in data set [26] was found to be 3.62. Turning to `Nc1c([N+](=O)[O-])cc(C(F)(F)F)cc1[N+](=O)[O-]`, in data set [28], the logP amounted to 2.29.

Molecule `O=NN(CCCl)S(=O)(=O)N1CCCCC1` came in with a logP in data set [4] of 1.03. As to `NC(=O)Nc1ccc(Cl)cc1`, in [25], the logP was determined as 1.8. As for `CCCNc1c([N+](=O)[O-])cc(C(F)(F)F)cc1[N+](=O)[O-]`, the logP in data set [28] came to 3.65.

For the molecule `Cc1ccc(C=C(C#N)C#N)o1`, in data set [29], the logP is 2.03. For `CCOc1cccc(O)c1`, in data set [23], the logD stood at 1.98. `CC(C)c1ccccc(=O)c1O` registered a logD in data set [30] of 0.96.

Take `O=C(O)COc1ccc(Br)cc1`: the logP in data set [31] was determined as 2.45. `CC(=O)c1ccccc1N` returned a logP in data set [5] of 1.25. Regarding `NS(=O)(=O)c1nnc(NS(=O)(=O)c2ccccc2)s1`, the logP in [17] was 0.22. In data set [32], `COc1c(O)c(Cl)c(Cl)c(Cl)c1Cl` came in with a logP of 4.42. `N#Cc1ccccc1`: the logP in data set [12] is 1.5. Consider `CC(C)COCC(C)C`, for which the logP in data set [21] came out at 2.78. The molecule `Cc1c(Cl)cccc1[N+](=O)[O-]` had a logP in data set [18] of 3.09. `CC(=O)c1ccc(OCC(=O)O)cc1` returned a logP in data set [31] of 1.08.

As to `O=C1C=CC(=O)c2c(O)ccc(O)c21`, the logP in data set [11] worked out at 1.79.

In turn, `CC(=O)CCCCn1c(=O)c2c(ncn2C)n(C)c1=O` came in with a logP in data set [6] of 0.29. In the case of `O=C(O)c1cccc(C(=O)O)n1`, in data set [16], the logP came out at 0.45. On to `c1ccc(-c2nnn[nH]2)cc1`, for which the logP in data set [33] came to 1.5. Turning to `COc1cc(Cl)c(Cl)cc1O`, the logP in data set [32] was found to be 3.19. Turning to `COc1ccc(OC)c(C=O)c1`, the log partition coefficient (logP) in data set [34] came to 1.91. Same read-out and setting: the figure for `O=Cc1cc(O)ccc1O` is 0.54.

`Nc1ccc(F)cc1F` gave a logP in [3] of 1.56. Take `Brc1ccccc1-c1nnn[nH]1`: the logP in data set [33] is 1.81. On to `Cc1ccccc1[N+](=O)[O-]`, for which the logP in [35] turned out to be 2.17.

In data set [30], `O=Nc1ccc(O)c(=O)cc1` showed a logD of 0.83. Regarding `COCC(O)Cn1c([N+](=O)[O-])nc(Br)c1Br` (stereo unspecified), the logP in data set [36] is 1.02. In the case of `N#CCCCCCCC#N`, the log partition coefficient (logP) in [37] was 0.59. Turning to `COCC(O)Cn1c(Br)cnc1[N+](=O)[O-]` (stereo unspecified), the logP in [36] was 0.16. In the case of `CCc1[nH]ccc(=O)c1O`, the logD in data set [20] was determined as 0.05.

In the case of `N#CCCCCCC#N`, the logP in data set [37] was 0.05. The molecule `Nc1ccc(O)c([N+](=O)[O-])c1` yielded a logP in data set [15] of 0.96.

As for `CCN(CC)C(C)=O`, the logP in data set [35] amounted to 0.37. Turning to `c1ccc2[nH]ncc2c1`, in data set [7], the logD was 1.82. In data set [24], `O=[N+]([O-])c1cccc2cccc([N+](=O)[O-])c12` showed a logP of 2.52. Take `Nc1c(Cl)c(Cl)cc(Cl)c1Cl`: the logP in data set [22] is 4.06. Take `Cn1c(=O)[nH]c(=O)c2nc[nH]c21`: the logD in data set [27] is -0.72. `N#CC(C#N)=Cc1ccc(Br)o1` yielded a logP in data set [29] of 2.28. Regarding `CCCC/C=C/C=O`, the logD in [19] was 2.06.
